Data published in patent US8962690B2, “Compositions of dibromomalonamide and their use as biocides” (priority 2009, dated 2015).
Where a name gives a salt, the structure may show the parent alone. Read-outs that look alike come from different tables or passages of the source.

What was measured:
[1] = tested on: mixture of Pseudomonas aeruginosa, Klebsiella pneumoniae, Staphylococcus aureus, and Bacillus subtilis; experiment: Growth Inhibition Assay (microtiter plate, OD580); type: cell-based; details: for inhibition at 0.39 µg/mL / inhibition at 0.78 µg/mL / inhibition at 1.56 µg/mL / inhibition at 3.13 µg/mL / inhibition at 6.25 µg/mL / inhibition at 12.5 µg/mL / inhibition at 25 µg/mL: 24 h
Excerpt: Regardless of the mechanism of action, the impact of a biocide (or combination of biocides) can be measured over time on the basis of an increase in the size of the community.
The assay measures the efficacy of one or more biocides at preventing growth of a consortium of bacteria in a dilute mineral salts medium. The medium contains (in mg/l) the following components: FeCl3.6H2O (1); CaCl2.2H2O (10); MgSO4.7H2O (22.5); (NH4)2SO4 (40); KH2PO4 (10); K2HPO4 (25.5); Yeast Extract (10); and glucose (100). After all components are added to deionized water, the pH of the medium is adjusted to 7.5. Following filter sterilization, aliquots are dispensed in 100 ul quantities to sterile microtiter plate wells. Dilutions of DBMAL and/or “Biocide B” are then added to the microtiter plate. After preparing the combinations of actives as illustrated below, each well is inoculated with 100 μl of a cell suspension containing ca. 1×10^6 cells per milliliter of a mixture of Pseudomonas aeruginosa, Klebsiella pneumoniae, Staphylococcus aureus, and Bacillus subtilis. The final total volume of medium in each well is 300 μl. Once prepared as described herein, the concentration of each active ranges from 25 ppm to 0.195 ppm as illustrated in Table 1. The resulting matrix allows testing of eight concentrations of each active and 64 combinations of actives in the ratios (of actives).
Controls (not shown) contain the medium with no biocide added. After preparing the combinations of actives as illustrated above, each well is inoculated with 100 μl of a cell suspension containing ca. 1×10^6 cells per milliliter of a mixture of Pseudomonas aeruginosa, Klebsiella pneumoniae, Staphylococcus aureus, and Bacillus subtilis. The final total volume of medium in each well is 300 μl.
Immediately after the microtiter plates are prepared, the optical density (OD) readings for each well is measured at 580 nm and the plates are then incubated at 37° C. for 24 hr. After the incubation period, the plates are gently agitated before OD580 values are collected. The OD580 values at T0 are subtracted from T24 values to determine the total amount of growth (or lack thereof) that occurs. These values are used to calculate the percent inhibition of growth caused by the presence of each biocide and each of the 64 combinations.
where • CDBMAL: Concentration of DBMAL required to inhibit ˜90% of bacterial growth when used alone • CB: Concentration of biocide (B) required to inhibit ˜90% of bacterial growth when used alone. • MDBMAL: Concentration of DBMAL required to inhibit ˜90% of bacterial growth when used in combination with biocide (B). • MB: Concentration of biocide (B) required to inhibit ˜90% of bacterial growth when used in combination with DBMAL The SI values are interpreted as follows: • SI<1: Synergistic • SI=1: Additive • SI>1: Antagonistic
In the Examples below, the amounts of biocides in the solution are measured in mg per liter of solution (mg/l). Since solution densities are approximately 1.00, the mg/l measurement corresponds to weight ppm. Both units may therefore be used interchangeably in the Examples.

[2] = tested on: mixture of Pseudomonas aeruginosa ATCC 10145 and Staphylococcus aureus ATCC 6538; experiment: Kill Assay (minimum biocide concentration, MBC); type: cell-based; details: 2 h
Protocol: Kill Assay. This assay is used as a preliminary evaluation of synergy between the actives. The procedure is as follows. A mineral salts solution (0.2203 g of CaCl2, 0.1847 g of MgSO4, and 0.2033 g of NaHCO3 in 1 L water, approximately pH 8) is inoculated with equal amounts (about 10^7CFU/ml) of a mixture of Pseudomonas aeruginosa ATCC 10145 and Staphylococcus aureus ATCC 6538. Aliquots of the cell suspension are then treated with 2,2-dibromomalonamide (“DBMAL”), a surface active biocide, and their combinations at various concentration levels. […] The MBC values are then used to calculate a synergy index (SI) values. Summaries of the kill assay results are presented in the individual Examples. In each table, MBC values for each biocide and the blends tested are presented. Likewise, the Synergy Index (“SI”) values for the combinations are listed. SI is calculated with the following equation: Synergy Index=Ca/CA+Mb/CB where • Ca: Concentration of biocide A required for complete bacterial kill when used in combination with biocide B • CA: Concentration of biocide A required for complete bacterial kill when used alone • Cb: Concentration of biocide B required for complete bacterial kill when used in combination with biocide A • CB: […] Antagonistic

[3] = read-out: % Inhibition of growth by DGH
[4] = read-out: % Inhibition of growth by DDMAC

`CCCCCCCCCCCCNC(=N)N` [DGH, dodecylguanidine hydrochloride] gave an inhibition at 0.39 µg/mL [1, 3] of 3%, an inhibition at 0.78 µg/mL [1, 3] of 0% and an inhibition at 1.56 µg/mL [1, 3] of 0%. For the same compound, the inhibition at 3.13 µg/mL [1, 3] was 3%, the inhibition at 6.25 µg/mL [1, 3] was 52% and the inhibition at 12.5 µg/mL [1, 3] was 100%. For the same compound, the inhibition at 25 µg/mL [1, 3] was 100%.

“C12-C16 alkyl dimethyl benzyl ammonium chloride [ADBAC]” was tested, and the “% Inhibition of growth by ADBAC” value ([1]; ADBAC alone 0.78 mg/l, 24 hr) was 6%, the “% Inhibition of growth by ADBAC” value ([1]; ADBAC alone 1.56 mg/l, 24 hr) was 50% and the “90% inhibition of growth concentration (I90)” value ([1]; single active, 24 hr) was 3.13 mg/L.

Work on `NC(=O)C(Br)(Br)C(N)=O` [DBMAL, 2,2-dibromomalonamide] yielded an MBC ([2]; read-out: MBC, 1st biocide DBMAL) of 66.7 µg/mL, an inhibition at 0.39 µg/mL ([1]; DBMAL alone 0.39 mg/l, 24 hr (Table 3), read-out: % Inhibition of growth by DBMAL) of 28% and an inhibition at 0.39 µg/mL ([1]; DBMAL alone 0.39 mg/l, 24 hr (Table 7), read-out: % Inhibition of growth by DBMAL) of 19%. For the same compound, the inhibition at 0.78 µg/mL ([1]; DBMAL alone 0.78 mg/l, 24 hr (Table 3), read-out: % Inhibition of growth by DBMAL) was 34%, the inhibition at 0.78 µg/mL ([1]; DBMAL alone 0.78 mg/l, 24 hr (Table 5), read-out: % Inhibition of growth by DBMAL) was 3% and the inhibition at 0.78 µg/mL ([1]; DBMAL alone 0.78 mg/l, 24 hr (Table 7), read-out: % Inhibition of growth by DBMAL) was 14%. It also gave an inhibition at 1.56 µg/mL ([1]; DBMAL alone 1.56 mg/l, 24 hr (Table 3), read-out: % Inhibition of growth by DBMAL) of 26%, an inhibition at 1.56 µg/mL ([1]; DBMAL alone 1.56 mg/l, 24 hr (Table 7), read-out: % Inhibition of growth by DBMAL) of 8% and an inhibition at 3.13 µg/mL ([1]; DBMAL alone 3.13 mg/l, 24 hr (Table 3), read-out: % Inhibition of growth by DBMAL) of 1%. For the same compound, the inhibition at 3.13 µg/mL ([1]; DBMAL alone 3.13 mg/l, 24 hr (Table 5), read-out: % Inhibition of growth by DBMAL) was 1%, the inhibition at 3.13 µg/mL ([1]; DBMAL alone 3.13 mg/l, 24 hr (Table 7), read-out: % Inhibition of growth by DBMAL) was 10% and the inhibition at 6.25 µg/mL ([1]; DBMAL alone 6.25 mg/l, 24 hr (Table 5), read-out: % Inhibition of growth by DBMAL) was 5%. The inhibition at 6.25 µg/mL ([1]; DBMAL alone 6.25 mg/l, 24 hr (Table 7), read-out: % Inhibition of growth by DBMAL) was 16% and the inhibition at 6.25 µg/mL ([1]; DBMAL alone 6.25 mg/l, 24 hr (Table 9), read-out: % Inhibition of growth by DBMAL) was 18%.

For `CCCCCCCCCC[N+](C)(C)CCCCCCCCCC` [DDMAC, didecyldimethyl ammonium chloride], the inhibition at 0.39 µg/mL [1, 4] was 12%, the inhibition at 0.78 µg/mL [1, 4] was 23% and the inhibition at 1.56 µg/mL [1, 4] was 26%. For the same compound, the inhibition at 3.13 µg/mL [1, 4] was 46%, the inhibition at 6.25 µg/mL [1, 4] was 100% and the inhibition at 12.5 µg/mL [1, 4] was 100%. It also gave an inhibition at 25 µg/mL [1, 4] of 100%.

`CCCCCCCC[N+](C)(C)CCCCCCCC.[Cl-]` [DDAC, dioctyl dimethyl ammonium chloride] gave an MBC ([2]; read-out: MBC, 2nd biocide DDAC) greater than 150 µg/mL.
